Values after ≈ are worked out from the molar mass of the structure shown. Read-outs that look alike come from different tables or passages of the source.
What was measured:
TF1-IDH1^R132H cells [1] = test: HBG and KLF1 RNA by RT-qPCR in EPO differentiation assay; format: cell-based; conditions: concurrent schedule; for increase in HBG gene expression: COMPOUND 2 0.2 μM, AZA 1.0 μM, single agents or combined
Experimental: EPO differentiation assay in TF1-IDH1^R132H cells. […] Cells were treated with vehicle, AZA alone, COMPOUND 2 alone, or the combination of AZA+COMPOUND 2. In the sequential schedule, cells were pre-treated with AZA for three days before addition of COMPOUND 2. In the concurrent schedule, cells were co-treated with AZA and COMPOUND 2 throughout the assay. Endpoints assessed assays were: cell pellet color evaluation (hemoglobinization assay); HBG and KLF1 RNA by RT-qPCR; CD235a-positive cell populations by flow cytometry (differentiation markers); and Growth and apoptosis by IncuCyte Zoom real-time imaging.
Cells were treated with vehicle, AZA alone, COMPOUND 2 alone, or the combination of AZA+COMPOUND 2. In the sequential schedule, cells were pre-treated with AZA for three days before addition of COMPOUND 2. In the concurrent schedule, cells were co-treated with AZA and COMPOUND 2 throughout the assay.

[2] = cited from earlier work
TF-1-IDH1^R132H cells = test: growth and apoptosis by IncuCyte Zoom real-time imaging; format: cell-based; conditions: AZA 1 μM; for cell growth compared to the DMSO control: COMPOUND 2 0.1, 0.3 or 1.0 μM; for induction of apoptosis: late time points (>60 hrs), combination with 0.1 and 0.3 μM COMPOUND 2
Experimental: (§1) EPO differentiation assay in TF1-IDH1^R132H cells. […] Endpoints assessed assays were: cell pellet color evaluation (hemoglobinization assay); HBG and KLF1 RNA by RT-qPCR; CD235a-positive cell populations by flow cytometry (differentiation markers); and Growth and apoptosis by IncuCyte Zoom real-time imaging.
In order to track cell growth and death in real-time, a real-time analysis was performed using IncuCyte Zoom (FIG. 4).

TF1-IDH1^R132H cells [3] = test: EPO differentiation assay, cell pellet color evaluation (hemoglobinization assay); format: cell-based; conditions: concurrent schedule; COMPOUND 2 0.2 and 1.0 μM; AZA up to 1 uM
Text: as §1

TF1-IDH1^R132H cells [4] = test: CD235a-positive cell populations by flow cytometry in EPO differentiation assay; format: cell-based; conditions: concurrent schedule
Text: as §1

[5] = solubility in fasted state simulated intestinal fluid (FASSIF); format: physicochemical; conditions: pH 6.1, fassif, thermodynamic from solid, pH of 6.1 at 4 hours
Experimental: In comparison, amorphous spray-dried dispersions have a solubility of about 0.05 mg/mL to about 0.50 mg/mL in FASSIF at 3 hours.

Structure (SMILES)	increase in HBG gene expression (TF1-IDH1^R132H cells [1]) [fold]	solubility ([2]; in dimethylsulfoxide (DMSO))	cell growth compared to the DMSO control (TF-1-IDH1^R132H cells)	induction of apoptosis (TF-1-IDH1^R132H cells)	hemoglobinization (red color of cell pellets) (TF1-IDH1^R132H cells [3])	further results
Nc1ncn([C@@H]2O[C@H](CO)[C@@H](O)[C@H]2O)c(=O)n1 [AZA, 4-amino-1-β-D-ribofuranozyl-s-triazin-2(1H)-one]	1	soluble	slowed growth	increased apoptosis above the DMSO control	little or no effect on cell pellet color	solubility ([2]; in acetone, ethanol and methyl ketone): insoluble; solubility ([2]; in ethanol/water (50/50), propylene glycol and polyethylene glycol): slightly soluble; solubility ([2]; in water, water-saturated octanol, 5% dextrose in water, N-methyl-2-pyrrolidone, normal saline and 5% Tween 80 in water): sparingly soluble
N#Cc1ccnc(N2C(=O)CC[C@H]2C(=O)N(c2cncc(F)c2)[C@H](C(=O)NC2CC(F)(F)C2)c2ccccc2Cl)c1 [COMPOUND 2, (S)-N-((S)-1-(2-chlorophenyl)-2-((3,3-difluorocyclobutyl)amino)-2-oxoethyl)-1-(4-cyanopyridin-2-yl)-N-(5-fluoropyridin-3-yl)-5-oxopyrrolidine-2-carboxamide]	25		slightly promoted cell growth	no effect on induction of apoptosis	increased hemoglobin production in a dose-dependent manner	RNA expression of differentiation marker KLF1 (TF1-IDH1^R132H cells [1]): Dose-dependent increases; RNA expression of differentiation marker HBG (TF1-IDH1^R132H cells [1]; combination with COMPOUND 2 0.2 μM): dose-dependent increases; erythroid differentiation marker CD235a (Glycophorin A) expression (TF1-IDH1^R132H cells [4]): increased erythroid differentiation marker CD235a
Nc1ncn([C@H]2C[C@H](O)[C@@H](CO)O2)c(=O)n1 [Decitabine, 4-amino-1-(2-deoxy-β-D-erythro-pentofuranosyl)-1,3,5-triazin-2(1H)one]		soluble				solubility ([2]; in ethanol/water (50/50), methanol/water (50/50) and methanol): slightly soluble; solubility ([2]; in water): sparingly soluble
N#Cc1ccnc(N2C(=O)CC[C@H]2C(=O)N(c2cncc(F)c2)[C@H](C(=O)NC2CC(F)(F)C2)c2ccccc2Cl)c1 [Form 2, (S)-N-((S)-1-(2-chlorophenyl)-2-((3,3-difluorocyclobutyl)amino)-2-oxoethyl)-1-(4-cyanopyridin-2-yl)-N-(5-fluoropyridin-3-yl)-5-oxopyrrolidine-2-carboxamide]						solubility at 4 h [5]: ~18 µg/mL (≈ 30.9 µM)

— patent US10653710B2, “Combination therapy for treating malignancies” (Agios Pharmaceuticals, Inc., priority 2015, dated 2020)
